Experimental data: ChEMBL document CHEMBL4507295 (2021)

How the values were obtained:
Details in all cases: Compound concentration 1000.0 nM
[1] = test system: Tyrosine-protein kinase ABL1 (Homo sapiens), P00519 [F317L]
[2] = test system: Tyrosine-protein kinase ABL1 (Homo sapiens), P00519 [T315I]
[3] = test system: ALK tyrosine kinase receptor (Homo sapiens), Q9UM73 [L1196M]
[4] = biological target: 5'-AMP-activated protein kinase catalytic subunit alpha-1 (Homo sapiens) (UniProt Q13131)
[5] = biological target: Aurora kinase B (Homo sapiens) (UniProt Q96GD4)
[6] = biological target: Aurora kinase C (Homo sapiens) (UniProt Q9UQB9)
[7] = biological target: Serine/threonine-protein kinase BRSK2 (Homo sapiens) (UniProt Q8IWQ3)
[8] = biological target: Mitotic checkpoint serine/threonine-protein kinase BUB1 (Homo sapiens) (UniProt O43683)
Mitotic checkpoint serine/threonine-protein kinase BUB1 (Homo sapiens), sequence (O43683 whole entry, looked up): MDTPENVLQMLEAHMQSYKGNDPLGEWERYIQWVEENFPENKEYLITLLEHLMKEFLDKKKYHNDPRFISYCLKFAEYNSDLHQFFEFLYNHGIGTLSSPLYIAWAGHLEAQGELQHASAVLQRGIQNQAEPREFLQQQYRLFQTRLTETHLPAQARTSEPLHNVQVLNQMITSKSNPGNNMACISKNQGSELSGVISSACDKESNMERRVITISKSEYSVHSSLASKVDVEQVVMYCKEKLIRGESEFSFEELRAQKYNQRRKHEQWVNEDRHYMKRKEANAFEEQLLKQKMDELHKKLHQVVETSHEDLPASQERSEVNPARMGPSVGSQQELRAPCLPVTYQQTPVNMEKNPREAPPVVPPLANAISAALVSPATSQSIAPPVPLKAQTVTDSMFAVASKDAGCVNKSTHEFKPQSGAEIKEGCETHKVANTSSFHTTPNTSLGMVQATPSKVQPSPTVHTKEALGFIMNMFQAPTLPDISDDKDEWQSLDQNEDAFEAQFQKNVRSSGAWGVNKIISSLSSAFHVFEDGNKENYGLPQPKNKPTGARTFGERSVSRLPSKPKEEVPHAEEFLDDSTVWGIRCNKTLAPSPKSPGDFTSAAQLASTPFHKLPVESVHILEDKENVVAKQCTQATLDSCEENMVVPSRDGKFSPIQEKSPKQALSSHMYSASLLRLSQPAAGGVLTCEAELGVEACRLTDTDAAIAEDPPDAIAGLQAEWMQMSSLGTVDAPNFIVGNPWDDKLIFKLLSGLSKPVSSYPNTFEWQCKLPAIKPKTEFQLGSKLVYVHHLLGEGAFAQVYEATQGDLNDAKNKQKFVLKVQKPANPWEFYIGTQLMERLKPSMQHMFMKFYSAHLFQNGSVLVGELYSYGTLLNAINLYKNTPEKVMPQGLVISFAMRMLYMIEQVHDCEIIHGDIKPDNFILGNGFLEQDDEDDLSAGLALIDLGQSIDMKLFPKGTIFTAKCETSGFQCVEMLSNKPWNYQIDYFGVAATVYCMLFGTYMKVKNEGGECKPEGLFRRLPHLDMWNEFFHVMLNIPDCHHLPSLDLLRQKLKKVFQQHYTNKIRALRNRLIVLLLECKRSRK

[9] = biological target: Calcium/calmodulin-dependent protein kinase type 1 (Homo sapiens) (UniProt Q14012)
[10] = biological target: Calcium/calmodulin-dependent protein kinase kinase 1 (Homo sapiens) (UniProt Q8N5S9)
[11] = biological target: Cyclin-dependent kinase 4 (Homo sapiens) (UniProt P11802)
[12] = biological target: Casein kinase I isoform alpha (Homo sapiens) (UniProt P48729)
[13] = biological target: Casein kinase II subunit alpha (Homo sapiens) (UniProt P68400)
[14] = biological target: Death-associated protein kinase 1 (Homo sapiens) (UniProt P53355)
[15] = biological target: Serine/threonine-protein kinase DCLK3 (Homo sapiens) (UniProt Q9C098)
[16] = biological target: Eukaryotic translation initiation factor 2-alpha kinase 1 (Homo sapiens) (UniProt Q9BQI3)
[17] = biological target: Ephrin type-A receptor 8 (Homo sapiens) (UniProt P29322)
[18] = biological target: Ephrin type-B receptor 3 (Homo sapiens) (UniProt P54753)
Ephrin type-B receptor 3 (Homo sapiens), sequence (P54753 whole entry): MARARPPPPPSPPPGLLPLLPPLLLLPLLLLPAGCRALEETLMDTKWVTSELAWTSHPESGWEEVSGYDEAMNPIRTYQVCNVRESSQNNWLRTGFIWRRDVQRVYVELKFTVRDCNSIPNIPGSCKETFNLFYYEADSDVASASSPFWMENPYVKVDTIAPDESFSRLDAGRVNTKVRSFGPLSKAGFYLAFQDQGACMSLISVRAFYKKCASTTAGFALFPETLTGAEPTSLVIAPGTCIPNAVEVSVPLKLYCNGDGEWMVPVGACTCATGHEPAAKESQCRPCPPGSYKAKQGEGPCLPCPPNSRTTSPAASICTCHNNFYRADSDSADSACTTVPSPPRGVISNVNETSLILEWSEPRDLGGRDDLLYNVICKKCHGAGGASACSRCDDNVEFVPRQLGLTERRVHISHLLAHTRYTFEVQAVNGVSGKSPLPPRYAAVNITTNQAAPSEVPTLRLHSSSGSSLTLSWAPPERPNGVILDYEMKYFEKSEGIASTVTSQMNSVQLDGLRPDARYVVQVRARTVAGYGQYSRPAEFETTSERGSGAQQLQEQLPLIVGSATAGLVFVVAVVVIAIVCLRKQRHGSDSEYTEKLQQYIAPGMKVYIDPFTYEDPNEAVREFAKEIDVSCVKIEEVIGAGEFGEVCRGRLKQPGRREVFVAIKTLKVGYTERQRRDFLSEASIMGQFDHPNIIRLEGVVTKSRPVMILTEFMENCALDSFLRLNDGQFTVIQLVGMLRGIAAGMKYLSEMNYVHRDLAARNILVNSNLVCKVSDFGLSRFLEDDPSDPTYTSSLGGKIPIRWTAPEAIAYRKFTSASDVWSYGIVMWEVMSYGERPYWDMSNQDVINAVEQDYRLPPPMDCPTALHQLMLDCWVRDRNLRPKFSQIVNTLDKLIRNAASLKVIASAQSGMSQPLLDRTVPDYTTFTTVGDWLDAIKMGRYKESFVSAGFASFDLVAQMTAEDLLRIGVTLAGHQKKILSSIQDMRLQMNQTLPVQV

[19] = biological target: Mitogen-activated protein kinase 1 (Homo sapiens) (UniProt P28482)
[20] = biological target: Tyrosine-protein kinase Fes/Fps (Homo sapiens) (UniProt P07332)
[21] = biological target: Fibroblast growth factor receptor 3 (Homo sapiens) (UniProt P22607)
[22] = test system: Receptor-type tyrosine-protein kinase FLT3 (Homo sapiens), P36888 [D835V]
[23] = test system: Receptor-type tyrosine-protein kinase FLT3 (Homo sapiens), P36888 [UNDEFINED MUTATION]
[24] = biological target: Tyrosine-protein kinase JAK1 (Homo sapiens) (UniProt P23458)
Tyrosine-protein kinase JAK1 (Homo sapiens), sequence (P23458 whole entry): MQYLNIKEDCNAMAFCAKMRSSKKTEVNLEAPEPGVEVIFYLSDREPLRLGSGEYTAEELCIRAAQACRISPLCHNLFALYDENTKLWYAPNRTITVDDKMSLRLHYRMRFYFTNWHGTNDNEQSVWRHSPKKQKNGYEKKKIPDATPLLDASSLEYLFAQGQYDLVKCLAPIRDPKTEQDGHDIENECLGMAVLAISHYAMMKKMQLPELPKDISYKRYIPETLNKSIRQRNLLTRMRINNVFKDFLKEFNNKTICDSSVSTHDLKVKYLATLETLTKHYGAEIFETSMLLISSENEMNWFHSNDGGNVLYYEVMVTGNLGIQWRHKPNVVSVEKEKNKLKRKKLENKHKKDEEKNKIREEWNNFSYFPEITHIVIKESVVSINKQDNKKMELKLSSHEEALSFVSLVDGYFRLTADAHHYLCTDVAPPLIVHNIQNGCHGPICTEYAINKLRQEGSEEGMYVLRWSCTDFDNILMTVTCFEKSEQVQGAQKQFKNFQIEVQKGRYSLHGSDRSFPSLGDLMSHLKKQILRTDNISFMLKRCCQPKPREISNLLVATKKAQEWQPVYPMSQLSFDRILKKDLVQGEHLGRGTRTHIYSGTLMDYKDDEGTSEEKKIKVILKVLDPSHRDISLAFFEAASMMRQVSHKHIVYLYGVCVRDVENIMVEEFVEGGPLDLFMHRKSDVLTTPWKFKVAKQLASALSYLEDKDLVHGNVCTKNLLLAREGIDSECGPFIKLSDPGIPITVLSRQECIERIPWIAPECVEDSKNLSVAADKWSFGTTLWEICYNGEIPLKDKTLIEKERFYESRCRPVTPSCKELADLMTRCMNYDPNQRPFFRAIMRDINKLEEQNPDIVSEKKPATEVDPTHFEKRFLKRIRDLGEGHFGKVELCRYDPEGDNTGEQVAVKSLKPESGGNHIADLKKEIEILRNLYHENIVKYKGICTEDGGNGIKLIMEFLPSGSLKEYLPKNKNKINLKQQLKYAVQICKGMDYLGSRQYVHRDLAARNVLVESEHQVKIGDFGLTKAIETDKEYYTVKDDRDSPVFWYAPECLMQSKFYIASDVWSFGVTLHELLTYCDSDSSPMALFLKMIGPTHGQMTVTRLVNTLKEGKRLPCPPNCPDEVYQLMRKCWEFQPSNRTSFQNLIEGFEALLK

[25] = biological target: Mitogen-activated protein kinase 8 (Homo sapiens) (UniProt P45983)
[26] = biological target: Mitogen-activated protein kinase kinase kinase 4 (Homo sapiens) (UniProt Q9Y6R4)
[27] = biological target: Mitogen-activated protein kinase kinase kinase kinase 3 (Homo sapiens) (UniProt Q8IVH8)
[28] = biological target: Serine/threonine-protein kinase MARK1 (Homo sapiens) (UniProt Q9P0L2)
[29] = biological target: Serine/threonine-protein kinase MARK2 (Homo sapiens) (UniProt Q7KZI7)
[30] = biological target: Serine/threonine-protein kinase MRCK beta (Homo sapiens) (UniProt Q9Y5S2)
[31] = biological target: Serine/threonine-protein kinase 26 (Homo sapiens) (UniProt Q9P289)
Serine/threonine-protein kinase 26 (Homo sapiens), sequence (Q9P289 2-416 limits assumed): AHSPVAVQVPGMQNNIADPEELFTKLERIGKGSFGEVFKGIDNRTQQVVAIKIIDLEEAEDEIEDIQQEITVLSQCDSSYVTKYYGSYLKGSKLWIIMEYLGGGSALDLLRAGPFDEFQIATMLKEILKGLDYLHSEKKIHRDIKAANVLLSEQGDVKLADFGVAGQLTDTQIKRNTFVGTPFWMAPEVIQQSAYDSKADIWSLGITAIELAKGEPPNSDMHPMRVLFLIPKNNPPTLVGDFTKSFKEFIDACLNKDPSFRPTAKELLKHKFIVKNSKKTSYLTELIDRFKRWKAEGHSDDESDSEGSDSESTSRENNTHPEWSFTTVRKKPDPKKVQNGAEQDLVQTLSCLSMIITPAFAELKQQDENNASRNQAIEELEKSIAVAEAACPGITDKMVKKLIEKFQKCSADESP

[32] = biological target: 3-phosphoinositide-dependent protein kinase 1 (Homo sapiens) (UniProt O15530)
[33] = biological target: Serine/threonine-protein kinase N1 (Homo sapiens) (UniProt Q16512)
[34] = biological target: Serine/threonine-protein kinase D3 (Homo sapiens) (UniProt O94806)
[35] = biological target: Ribosomal protein S6 kinase alpha-4 (Homo sapiens) (UniProt O75676)
[36] = biological target: Serine/threonine-protein kinase SBK1 (Homo sapiens) (UniProt Q52WX2)
[37] = biological target: Serine/threonine-protein kinase Sgk3 (Homo sapiens) (UniProt Q96BR1)
[38] = biological target: STE20-like serine/threonine-protein kinase (Homo sapiens) (UniProt Q9H2G2)
[39] = biological target: Serine/threonine-protein kinase 36 (Homo sapiens) (UniProt Q9NRP7)
[40] = biological target: Tyrosine-protein kinase SYK (Homo sapiens) (UniProt P43405)
[41] = biological target: Dual specificity testis-specific protein kinase 1 (Homo sapiens) (UniProt Q15569)
[42] = biological target: TRAF2 and NCK-interacting protein kinase (Homo sapiens) (UniProt Q9UKE5)
[43] = biological target: Dual specificity protein kinase TTK (Homo sapiens) (UniProt P33981)
[44] = biological target: Non-receptor tyrosine-protein kinase TYK2 (Homo sapiens) (UniProt P29597)
Non-receptor tyrosine-protein kinase TYK2 (Homo sapiens), sequence (P29597 whole entry): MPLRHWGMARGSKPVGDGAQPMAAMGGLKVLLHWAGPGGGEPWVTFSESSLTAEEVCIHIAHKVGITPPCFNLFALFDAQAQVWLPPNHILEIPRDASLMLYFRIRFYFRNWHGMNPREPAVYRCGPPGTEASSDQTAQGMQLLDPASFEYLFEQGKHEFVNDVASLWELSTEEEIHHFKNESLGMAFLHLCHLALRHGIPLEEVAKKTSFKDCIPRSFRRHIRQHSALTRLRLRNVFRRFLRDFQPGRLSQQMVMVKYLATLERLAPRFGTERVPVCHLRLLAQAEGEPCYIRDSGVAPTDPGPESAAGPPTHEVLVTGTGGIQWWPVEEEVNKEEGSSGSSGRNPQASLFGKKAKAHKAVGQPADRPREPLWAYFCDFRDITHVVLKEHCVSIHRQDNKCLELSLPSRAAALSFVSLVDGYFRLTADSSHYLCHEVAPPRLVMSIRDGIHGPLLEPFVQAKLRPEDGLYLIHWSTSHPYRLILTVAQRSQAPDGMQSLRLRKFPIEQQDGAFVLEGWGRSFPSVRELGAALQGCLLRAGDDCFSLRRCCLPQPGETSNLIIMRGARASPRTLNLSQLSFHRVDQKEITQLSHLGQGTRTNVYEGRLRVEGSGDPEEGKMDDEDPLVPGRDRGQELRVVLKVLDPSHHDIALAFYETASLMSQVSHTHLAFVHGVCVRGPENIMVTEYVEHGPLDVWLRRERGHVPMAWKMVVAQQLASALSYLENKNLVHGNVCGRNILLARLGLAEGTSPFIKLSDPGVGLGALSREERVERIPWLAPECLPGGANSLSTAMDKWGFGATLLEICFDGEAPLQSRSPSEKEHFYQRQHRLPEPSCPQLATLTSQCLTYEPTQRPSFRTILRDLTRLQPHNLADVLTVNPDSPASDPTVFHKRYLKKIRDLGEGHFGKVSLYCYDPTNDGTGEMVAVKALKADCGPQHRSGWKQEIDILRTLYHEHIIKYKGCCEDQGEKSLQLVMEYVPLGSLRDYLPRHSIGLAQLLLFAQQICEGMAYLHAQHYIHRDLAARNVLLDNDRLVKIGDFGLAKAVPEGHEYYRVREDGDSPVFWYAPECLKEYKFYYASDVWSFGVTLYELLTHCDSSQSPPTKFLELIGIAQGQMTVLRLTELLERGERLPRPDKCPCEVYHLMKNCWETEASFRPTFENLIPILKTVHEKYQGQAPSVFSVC

[45] = biological target: Wee1-like protein kinase (Homo sapiens) (UniProt P30291)

Measured: residual activity

N#CC1(c2ccccn2)CCN(Cc2cc(C(=O)N3CCCC3)c(=O)n3ccccc23)CC1
inactive: [1] 92% | [2] 100% | [3] 100% | [4] 100% | [5] 92% | [6] 88% | [7] 77% | [8] 100% | [9] 100% | [10] 100% | [11] 91% | [12] 79% | [13] 100% | [14] 89% | [15] 100% | [16] 83% | [17] 100% | [18] 90% | [19] 98% | [20] 99% | [21] 88% | [22] 98% | [23] 90% | [24] 100% | [25] 96% | [26] 90% | [27] 81% | [28] 100% | [29] 100% | [30] 63% | [31] 100% | [32] 81% | [33] 91% | [34] 100% | [35] 100% | [36] 89% | [37] 82% | [38] 100% | [39] 98% | [40] 92% | [41] 90% | [42] 100% | [43] 98% | [44] 100% | [45] 74%

N#CC1(c2ccccn2)CCN(Cc2cc(C(=O)O)c(=O)n3ccccc23)CC1 [MSD-M1PAM]
inactive: [1] 57% | [2] 91% | [3] 100% | [4] 100% | [5] 76% | [6] 94% | [7] 100% | [8] 100% | [9] 76% | [10] 100% | [11] 94% | [12] 100% | [13] 86% | [14] 100% | [15] 89% | [16] 86% | [17] 100% | [18] 92% | [19] 100% | [20] 99% | [21] 100% | [22] 100% | [23] 94% | [24] 84% | [25] 85% | [26] 100% | [27] 80% | [28] 94% | [29] 100% | [30] 96% | [31] 100% | [32] 100% | [33] 100% | [34] 98% | [35] 65% | [36] 83% | [37] 74% | [38] 99% | [39] 100% | [40] 92% | [41] 100% | [42] 100% | [43] 88% | [44] 93% | [45] 99%
